The values below are quoted from earlier work in paper PMC11913096, “MBX 2109, A Once-Weekly Parathyroid Hormone Replacement Therapy Prodrug: Phase 1, First-In-Human, Randomized Trial” (The Journal of Clinical Endocrinology and Metabolism, 2024).

Where no end group is shown, it is not given here.

One data set concerns patients with hypoPT. The settings on record: once-daily, placebo 5%. On the procedure:
(§1) Because PTH deficiency is the etiology for chronic hypoPT, hormone replacement therapy with PTH would be the ideal treatment ([1], [2]). However, the short half-lives (t1/2) of unmodified PTH(1-34) and PTH(1-84) peptides necessitate frequent administration to normalize serum calcium levels ([2]). For example, twice-daily subcutaneous (SC) injection of teriparatide, a recombinant PTH(1-34) analogue with a short half-life (∼1 hour) ([2]), was more efficacious than once-daily administration in normalizing serum calcium and reducing hypercalciuria in patients with hypoPT ([9]). Continuous SC (pump ...

How the values of data set [1] were obtained: as §1

As for “palopegteriparatide (SVSEIQLMHNLGKHLNSMERVEWLRKKLQDVHNF; also: methoxy-PEG carrier prodrug, attachment not given here; UniProt P01270 32-65, looked up, fragment) [prodrug of PTH(1-34) conjugated to a methoxypolyethylene glycol (PEG) carrier]”, the “Patients achieving composite primary end point (normalizing serum calcium and eliminating active vitamin D and calcium supplements)” value in the data set on patients with hypoPT is reported as 79%.

On to teriparatide, for which the Half-life in data set [1] was about 1 h.
